According to patent publication US20240124464A1, “SUBSTITUTED FUSED BICYCLIC COMPOUND AS KINASE INHIBITOR AND USE THEREOF” (IMPACT THERAPEUTICS (SHANGHAI), INC, priority 2020, published 2024):
Where a chain is given by its changes, count along the chain named.

Key:
NUAK1(h) enzyme = target: T1, NUAK1(h) enzyme (Homo sapiens, UniProt O60285); assay: In vitro NUAK1 enzymatic assay (Eurofins Discovery, [γ-33P]-ATP filter assay); assay type: biochemical; conditions: 45 μM ATP, 40 min, room temperature; read-out: IC50, inhibitory effect on NUAK1 enzyme activity
T1 construct: purchased Eurofins Discovery
T1 sequence (O60285 1-661): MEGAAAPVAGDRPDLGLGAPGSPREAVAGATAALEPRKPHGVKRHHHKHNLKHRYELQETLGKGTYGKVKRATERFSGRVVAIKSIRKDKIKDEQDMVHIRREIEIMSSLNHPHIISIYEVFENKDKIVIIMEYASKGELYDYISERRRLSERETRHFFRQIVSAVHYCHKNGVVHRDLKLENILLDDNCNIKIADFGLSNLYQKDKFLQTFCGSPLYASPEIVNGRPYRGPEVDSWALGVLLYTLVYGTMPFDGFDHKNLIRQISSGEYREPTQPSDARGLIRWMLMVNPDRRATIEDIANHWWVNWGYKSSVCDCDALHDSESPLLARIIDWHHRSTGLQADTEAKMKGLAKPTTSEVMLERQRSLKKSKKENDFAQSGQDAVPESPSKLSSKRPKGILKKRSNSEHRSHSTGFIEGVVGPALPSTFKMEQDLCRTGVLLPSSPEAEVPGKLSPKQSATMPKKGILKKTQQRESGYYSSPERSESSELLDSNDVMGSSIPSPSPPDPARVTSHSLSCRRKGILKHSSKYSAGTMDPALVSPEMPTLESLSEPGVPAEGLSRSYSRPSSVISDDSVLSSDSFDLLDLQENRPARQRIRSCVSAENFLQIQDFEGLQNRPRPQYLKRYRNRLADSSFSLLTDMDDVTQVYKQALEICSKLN
Experimental: In Vitro Assay to Determine the Inhibitory Effect of Compounds in the Patent on NUAK1 Enzymatic Activity
The in vitro NUAK1 enzymatic assay was carried out at Eurofins Discovery to evaluate the inhibitory effect of the compounds presented in the invention. The assay protocol is as follow: the compound to be tested was mixed with NUAK1(h) enzyme and 300 μM […] substrate in 8 mM MOPS (pH 7.0) buffer containing 0.2 mM EDTA and incubated at room temperature. A Mg/ATP mixture containing 10 mM magnesium acetate and 45 μM [y-33P]-ATP was added to start the reaction. After incubation for 40 min at room temperature, the reaction was terminated by adding 0.5% phosphoric acid. Then, 10 μL of the reaction mix was spotted onto a P30 filter paper followed with four times of wash with 0.425% phosphoric acid solution (4 min each time), and one time wash with methanol. The filter paper was air-dried and counted in a liquid scintillation counter. The values obtained were plotted against the drug concentration and the IC50 was calculated.
Table 1 summarizes the inhibitory effect (IC50) of compounds tested on the NUAK1 enzyme activity in the present invention. ++++ indicates IC50≤10 nM; […]; ++ indicates 100 nM<IC50≤1 μM; + indicates IC50>1 μM.

NUAK2(h) enzyme = target: T2, NUAK2(h) enzyme (Homo sapiens, UniProt Q9H093); assay: In vitro NUAK2 enzymatic assay (Eurofins Discovery, [γ-33P]-ATP filter assay); assay type: biochemical; conditions: 45 μM ATP, 40 min, room temperature; read-out: IC50, inhibitory effect on NUAK2 enzyme activity
T2 construct: purchased Eurofins Discovery
T2 sequence (Q9H093 1-628): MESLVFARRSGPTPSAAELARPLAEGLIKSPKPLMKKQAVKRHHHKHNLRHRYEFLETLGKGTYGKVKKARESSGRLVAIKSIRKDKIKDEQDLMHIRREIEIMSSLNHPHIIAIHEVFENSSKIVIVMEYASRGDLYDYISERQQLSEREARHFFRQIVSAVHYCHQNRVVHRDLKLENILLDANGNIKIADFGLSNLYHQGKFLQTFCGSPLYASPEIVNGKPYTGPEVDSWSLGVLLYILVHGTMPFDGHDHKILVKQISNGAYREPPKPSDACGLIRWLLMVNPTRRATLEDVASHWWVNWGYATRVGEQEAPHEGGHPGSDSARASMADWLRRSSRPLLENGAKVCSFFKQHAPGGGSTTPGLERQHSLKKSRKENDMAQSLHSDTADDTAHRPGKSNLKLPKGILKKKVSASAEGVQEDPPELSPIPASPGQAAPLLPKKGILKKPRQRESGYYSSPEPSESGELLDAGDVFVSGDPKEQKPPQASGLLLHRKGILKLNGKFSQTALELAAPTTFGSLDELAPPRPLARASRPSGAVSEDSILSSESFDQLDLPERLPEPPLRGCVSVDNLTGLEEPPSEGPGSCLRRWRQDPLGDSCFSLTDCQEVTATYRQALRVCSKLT
Experimental: In Vitro Assay to Determine the Inhibitory Effect of Compounds in the Patent on NUAK2 Enzymatic Activity
The in vitro NUAK2 enzymatic assay was carried out at Eurofins Discovery to evaluate the inhibitory effect of the compounds presented in the invention. The assay protocol is as follow: the compound to be tested was mixed with NUAK2(h) enzyme and 300 […] substrate in 8 mM MOPS (pH 7.0) buffer containing 0.2 mM EDTA. A Mg/ATP mixture containing 10 mM magnesium acetate and 45 μM [γ-33P]-ATP was added to start the reaction. After incubation for 40 min at room temperature, the reaction was terminated by adding 0.5% phosphoric acid. Then 10 μL of the reaction mix was spotted onto a P30 filter paper. The filter paper was washed four times with 0.425% phosphoric acid with 4 min for each wash, and one time with methanol. The filter paper was air-dried and counted in a liquid scintillation counter. The values obtained were plotted against the drug concentration and the IC50 was calculated.
Table 1 summarizes the inhibitory effect (IC50) of compounds on the NUAK2 enzyme activity in the present invention. ++++ indicates IC50≤10 nM; +++ indicates 10 nM<IC50≤100 nM; ++ indicates 100 nM<IC50≤1 μM; + indicates IC50>1 μM.

[1] = tested on: HEC-1-B human endometrial cancer cells; assay: CTG (CellTiter-Glo) proliferation assay on HEC-1-B cells, 7 days; assay type: cell-based; conditions: 168 h, 7 days incubation, read-out: IC50, inhibitory effect on proliferation of Hec-1B cells
Experimental: CTG Assay to Evaluate the Inhibitory Effect of Compounds on HEC-1-B Human Endometrial Cancer Cells
Human endometrial cancer HEC-1-B cells were resuscitated and cultured in complete medium (MEM medium+10% FBS). When reaching about 80% confluence, the cells were gently blown away from the bottom of the culture dish with a 1 mL pipette. The cells were collected and centrifuged at 500 rpm for 3 min. The supernatant was discarded and the cell pellet was resuspend in fresh medium. Cells were counted to determine cell density and seeded into 96-well plates at a density of 1000 cells per well and incubated overnight at 37° C. in a 5% CO2 incubator. In the next day, the compounds in storage solution was serially diluted with DMSO at a ratio of 1:3 for a total of 9 concentrations. Two μL of each serially diluted solution was added to 98 μL of cell culture medium ([…]), while DMSO was mixed with culture medium similarly to be served as control. The compound dilutions were shaken and mixed. The cell culture plate with cells was removed from CO2 incubator, the culture medium was aspirated from each well, 135 μL of fresh medium was added to each well followed with 15 μL of the compound dilutions. The plates were incubated at 37° C. for 7 days in a 5% CO2 incubator. One hundred μL CellTiter-Glo reagent was added to each well and the plate was vortexed for 2 min and incubated for 10 min to fully lyse the cells. The chemiluminescence values were read using a plate reader.
The chemiluminescence values were plotted against compound concentrations to calculate the inhibitory activity of each compound on cell proliferation Cell inhibition rate (%)=(chemiluminescence value tested compound−chemiluminescence value DMSO control)/(chemiluminescence value medium control−chemiluminescence valueDMSO control)×100%.
A nonlinear S-curve regression was fitted using XLFit software to fit the data to derive a dose-effect curve, from which the IC50 values were calculated. The curve equation was Y=Bottom+(Top-Bottom)/(1+10{acute over ( )}((LogIC50-X)×slope)), where Y is the cellular inhibition rate, X is the compound concentration, Bottom refers to the lowest inhibition rate, and Top refers to the highest inhibition rate.
Table 3 summarizes the inhibitory effects (IC50) of the compounds on the proliferation of Hec-1B cells, Where ++++ indicates 100 nM<IC50≤500 nM; +++ indicates 500 nM<IC50≤1 μM; ++ indicates 1 μM<IC50≤10 μM; + indicates IC50>10 μM.

NUAK1 = target: T3, NUAK1 (Homo sapiens, UniProt O60285); conditions: cited from earlier work
T3 sequence (O60285 1-661): T1 sequence (O60285 1-661)

[2] = target: T4, NUAK1 (mutation from Ala to Thr at position 195) (Homo sapiens, UniProt O60285, A195T); conditions: cited from earlier work
T4 sequence (O60285 1-661 A195T): T1 sequence (O60285 1-661) with A195T

MEF cells = conditions: compared with shRNA knockdown of NUAK1; cited from earlier work
U2OS cell = conditions: 3D invasion assay, compared with NUAK1 knockout; cited from earlier work

SMILES	IC50 (NUAK1(h) enzyme)	IC50 (NUAK2(h) enzyme)	IC50 [1]	inhibition of phosphorylation of MYPT1 by NUAK1 at Ser445 (NUAK1)	resistance of NUAK1 Ala195Thr mutant to the inhibitor [2]	inhibition on proliferation against MEF cells (MEF cells)	inhibition of U2OS cell invasion (U2OS cell)
CN1CCN(c2ccc(Nc3ncc4c(n3)N(C3CCCC3)C(=O)NC4)c(Br)c2)CC1 [Example 32, 7-((2-bromo-4-(4-methylpiperazin-1-yl)phenyl)amino)-1-cyclopentyl-3,4-dihydropyrimido[4,5-d]pyrimidin-2(1H)-one]	10 to 100 nM	10 to 100 nM	1000 to 10000 nM	–	–	–	–
Cc1nc(Nc2cnn(C3CCNCC3)c2)nc2c1N(C)C(=O)c1cc3ccccc3cc1N2C [HTH-01-015]	–	–	–	inhibit the phosphorylation of MYPT1	50 fold	comparable to that of shRNA knockdown of NUAK1	inhibited U2OS cell invasion similarly to NUAK1 knockout did
CCC(=O)Nc1cccc(Oc2nc(Nc3ccc(N4CCN(C)CC4)cc3OC)ncc2Cl)c1 [WZ4003]	–	–	–	inhibit the phosphorylation of MYPT1	50 fold	comparable to that of shRNA knockdown of NUAK1	inhibited U2OS cell invasion similarly to NUAK1 knockout did
